Measurements from patent publication US11771779B2, “Non-metallic magnetic resonance contrast agent” (HADASIT MEDICAL RESEARCH SERVICES & DEVELOPMENT LIMITED, priority 2018, dated 2023).
Like-named read-outs stand apart in the source and are kept apart here.

What was measured:
[1] = T1 of hyperpolarized ^15N sites bound to labile protons upon dissolution in H2O and D2O, 5.8 T; format: physicochemical
Procedure: Spin polarization and fast dissolution were carried out in a dDNP commercial device (HyperSense, Oxford Instruments Molecular Biotools, Oxford, UK). The sample was maintained at 1.4-1.5 K and was irradiated at 94.110 GHz. ^15N NMR spectroscopy was performed in a 5.8 T NMR spectrometer (RS2D, Mundolsheim, France), using a 10-mm broadband NMR probe. The temperature in the NMR tube was continuously monitored using an NMR compatible temperature probe (Osensa, Burnaby, BC, Canada). Spectral processing and calculation of integrated intensities was performed using MNova (Mestrelab Research, Santiago de Compostela, Spain). Liquid state polarization was determined by comparing the integrated intensity of the first hyperpolarized spectrum to the integrated intensity of a standard containing a known concentration of ^15N label, where the thermal equilibrium polarization is given as PolTE=tanh(ℏγB/2kbT) Determination of the T1 of the hyperpolarized sites was performed by curve fitting of the signal decay to the following equation: S(t)=S0·e^−t/T^1·(cos θ)^t/TR in which TR, the time between excitations, and θ, the nutation angle of excitation, are known. For measurements of T1 in whole blood, 5.5 ml of whole blood in heparinized tube was obtained from a healthy volunteer and maintained at 20° C. for 2.5 h. Ten minutes before dissolution of the hyperpolarized urea sample, the blood was loaded into a NMR tube in the spectrometer and maintained at 36° C. The hyperpolarized urea sample was dissolved into a container outside the magnet and was injected in 0.5-1.0 mL aliquots followed by ≈2 ml of air through a tube at the bottom of the sample, to ensure no sample remained in the inlet line and complete mixing of the freshly injected solution with the blood. The sample was visually inspected at the end of the experiment to confirm that the hyperpolarized solution was well mixed with the blood and that there was no separation of the blood. Curve fitting was performed using Matlab (Mathworks, Natick, Mass., USA). Statistical analysis was performed using Microsoft Excel (Microsoft, Ra'anana, Israel).

[2] = Temperature dependence of T1 of hyperpolarized [^15N2]urea in D2O; format: physicochemical; design: T1 Average ± SD: unit not given here
Procedure: The experiment shown in FIG. 9B clarified the importance of maximizing the T1 of [^15N2]urea for optimal storage of the polarization, in order to expand the time scale in which the hyperpolarized signal from a single dose can be observed in vivo. As for storage there are no limitation to physiological temperatures, the effect of temperature on the T1 of [^15N2]urea was measured. Given the impressive signal afforded by the dDNP process and its long lifetime, it was possible to measure the T1 of the ^15N sites of urea for a range of temperatures with a single sample that was slowly heated or cooled while the temperature was continuously monitored with an NMR compatible temperature probe (FIG. 10A, top). In order to determine the temperature dependent T1, the decay data were retrospectively binned to consecutive 10° C. segments (FIG. 10A, alternating shading indicates different 10° C. segments) and the T for each temperature segment was determined (FIG. 10B, inset).
The hyperpolarized decay acquisitions were carried out with 3-10° excitation angle and 5-20 s repetition time. There was no significant difference in the T determined with different acquisition parameters.
Individual measurements are shown. Each column represents a single hyperpolarized decay, obtained with the same flip angle and repetition time. Using an online measurement of the temperature inside the NMR tube, we could differentiate different temperature regimes within a single decay and thus assess the effect of temperature on T1. T1 values were determined by fitting the equation describing the mono-exponential decay of a hyperpolarized signal: S(t)=S0·e−t/T1·(cos θ)t/TR.
The angle of excitation was determined by calibration of the 90o excitation on a ^15N labeled standard. The error for each individual measurement represents the 95% confidence interval of the curve fit.
The temperature gradient was formed by adding a solution at a temperature different than the spectrometer temperature so that throughout the acquisition the sample slowly cooled/warmed to the spectrometer temperature. […] Variability in the determined T1 values may be due to slight variations in the effective angle of excitation and/or the amount of trace protons present in different samples; indeed when different temperature segments are compared within the same hyperpolarized decay, (i.e. for the same sample on the same day), the dependence of T1 on the temperature can be even more clearly seen. The average and standard deviation of all measurements in the same temperature regime are shown in the column on the right.

[3] = Liquid state polarization and buildup of [^15N2]urea by dDNP; format: physicochemical
Procedure: The temperature in the NMR tube was continuously monitored using an NMR compatible temperature probe (Osensa, Burnaby, BC, Canada). […] Curve fitting was performed using Matlab (Mathworks, Natick, Mass., USA).

SMILES: [15NH2]C([15NH2])=O [[^15N2]urea]
- T1 upon dissolution in D2O ([1]; D2O, ≈37° C. (35-40° C.), 5.8 T, n=2): 200 ± 20 s
- T1 upon dissolution in H2O ([1]; H2O, ≈37° C. (35-40° C.), 5.8 T, n=2): 33 ± 5 s
- T1 prolongation D2O versus H2O ([1]; deuteration of labile protons): 6.1 fold
- decrease in polarization during 1 min transfer and administration ([1]; entire process at physiological temperatures): ≈ 25%
- T1 in whole blood (2nd injection): 12.0 ± 0.2 s
- T1 in whole blood (3rd injection): 12.9 ± 0.6 s
- T1 in whole blood (37° C.): 10 s
- T1 in whole human blood (first decay curve, D2O:whole blood 1:10, 95% CI): 9.8 ± 0.2 s
- T1 Average ± SD ([2]; 15-25° C., n = 3): 146 ± 23
- T1 Average ± SD ([2]; 25-35° C., n = 4): 191 ± 33
- T1 Average ± SD ([2]; 35-45° C., n = 6): 226 ± 38
- T1 Average ± SD ([2]; 45-55° C., n = 4): 308 ± 34
- T1 Average ± SD ([2]; 55-65° C., n = 4): 351 ± 40
- T1 Average ± SD ([2]; 65-75° C., n = 3): 382 ± 48
- T1 ([2]; #1, θ 10°, TR 5 s, 35-45° C.): 228 ± 4
- T1 ([2]; #2, θ 3°, TR 10 s, 15-25° C., ± 95% CI of fit): 155 ± 3
- T1 ([2]; #2, θ 3°, TR 10 s, 25-35° C.): 196 ± 8
- T1 ([2]; #3, θ 10°, TR 10 s, 25-35° C.): 209 ± 2
- T1 ([2]; #3, θ 10°, TR 10 s, 35-45° C.): 266 ± 4
- T1 ([2]; #3, θ 10°, TR 10 s, 45-55° C.): 355 ± 8
- T1 ([2]; #3, θ 10°, TR 10 s, 55-65° C.): 382 ± 17
- T1 ([2]; #4, θ 10°, TR 10 s, 25-35° C.): 216 ± 2
- T1 ([2]; #4, θ 10°, TR 10 s, 35-45° C.): 272 ± 3
- T1 ([2]; #4, θ 10°, TR 10 s, 45-55° C.): 340 ± 5
- T1 ([2]; #4, θ 10°, TR 10 s, 55-65° C.): 386 ± 12
- T1 ([2]; #4, θ 10°, TR 10 s, 65-75° C.): 416 ± 23
- T1 ([2]; #5, θ 10°, TR 10 s, 35-45° C.): 216 ± 5
- T1 ([2]; #5, θ 10°, TR 10 s, 45-55° C.): 273 ± 4
- T1 ([2]; #5, θ 10°, TR 10 s, 55-65° C.): 305 ± 14
- T1 ([2]; #5, θ 10°, TR 10 s, 65-75° C.): 327 ± 16
- T1 ([2]; #6, θ 10°, TR 10 s, 15-25° C.): 112 ± 6
- T1 ([2]; #6, θ 10°, TR 10 s, 25-35° C.): 143 ± 1
- T1 ([2]; #7, θ 10°, TR 15 s, 35-45° C.): 198 ± 2
- T1 ([2]; #8, θ 10°, TR 15 s, 35-45° C.): 176 ± 5
- T1 ([2]; #9, θ 5°, TR 20 s, 45-55° C.): 284 ± 6
- T1 ([2]; #9, θ 5°, TR 20 s, 55-65° C.): 332 ± 11
- T1 ([2]; #9, θ 5°, TR 20 s, 65-75° C.): 404 ± 41
- T1 ([2]; #10, θ 10°, TR 10 s, 15-25° C.): 163 ± 20
- T1 ([2]; D2O, 65-75° C. (above 65° C.)): more than 6 min
- T1 ([2]; deuterated water, physiological temperatures): > 3 min
- polarization buildup time ([3]; R^2=0.93): 2.3 ± 1.2 h
- maximum polarization ([3]; liquid state polarization after varying irradiation times, 1.4-1.5 K): 5.1±1.6%
